The text below walks through data of patent US4835189A, “Phenolic thioalkylamides as inhibitors of 5-lipoxygenase” (G. D. Searle & Co., priority 1987, dated 1989).

This assay addresses T1, 5-lipoxygenase (Rattus norvegicus, UniProt P12527).
T1 construct: The 100,000 x g supernatant fraction of Rat Basophilic Leukemia Cell Homogenate (RBL-1) serves as a 5-lipoxygenase enzyme source; endogenous in cells; host or cells: RBL-1 (rat basophilic leukemia) cells, 100,000 x g supernatant of homogenate
T1 sequence (P12527 1-673): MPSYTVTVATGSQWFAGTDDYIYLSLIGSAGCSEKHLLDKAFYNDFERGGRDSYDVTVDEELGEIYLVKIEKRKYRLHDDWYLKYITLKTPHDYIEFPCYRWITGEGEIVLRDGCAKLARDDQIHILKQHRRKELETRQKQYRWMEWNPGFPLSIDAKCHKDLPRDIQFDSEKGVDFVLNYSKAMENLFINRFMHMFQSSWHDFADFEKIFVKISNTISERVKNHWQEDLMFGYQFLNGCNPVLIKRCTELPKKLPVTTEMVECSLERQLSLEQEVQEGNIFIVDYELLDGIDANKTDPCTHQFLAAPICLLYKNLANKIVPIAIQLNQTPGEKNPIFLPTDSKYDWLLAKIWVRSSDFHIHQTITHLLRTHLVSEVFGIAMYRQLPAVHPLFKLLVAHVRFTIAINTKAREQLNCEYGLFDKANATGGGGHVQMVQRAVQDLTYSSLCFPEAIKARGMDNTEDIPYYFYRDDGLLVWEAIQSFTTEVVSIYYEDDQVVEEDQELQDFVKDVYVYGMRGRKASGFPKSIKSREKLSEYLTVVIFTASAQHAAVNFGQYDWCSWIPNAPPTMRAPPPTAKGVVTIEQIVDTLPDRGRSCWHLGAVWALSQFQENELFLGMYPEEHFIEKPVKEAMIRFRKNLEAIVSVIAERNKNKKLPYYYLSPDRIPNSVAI
Briefly: Inhibition of 5-lipoxygenase, in vitro (5-HETE synthesis, RBL-1 homogenate 100,000 x g supernatant). It is filed as biochemical. The conditions noted are these: RBL-1 100,000 x g supernatant, [1-14C]-arachidonic acid and Ca++. The protocol: The compounds of the invention are evaluated with respect to 5-lipoxygenaseinhibition according to the following assay procedure.
Inhibition of 5-lipoxygenase, in vitro: anti-inflammatory, anti-allergy activities.
The 100,000 x g supernatant fraction of Rat Basophilic Leukemia Cell Homogenate (RBL-1) serves as a 5-lipoxygenase enzyme source. The enzyme is incubated with [1-^14 C)-arachidonic acid and Ca++ in the presence and absence of test compound. The product of 5-lipoxygenase, 5-hydroxyeicosatetraenoic acid (5-HETE), is separated by thin-layer chromatography and measured by radioactivity. A compound inhibiting 5-HETE synthesis by 30% or more is considered active at that concentration.

Usually IC50 stands for the concentration that inhibits the measured activity by half. Low readings indicate greater potency, high ones weaker potency. In turn, `CC(C)N(C(=O)CCSc1cc(C(C)(C)C)c(O)c(C(C)(C)C)c1)C(C)C` [Example 5, 3-[[3,5-bis(1,1-dimethylethyl)-4-hydroxyphenyl]thio]-N,N-bis(1-methylethyl)propanamide] returned an IC50 of 1400 nM.

For the molecule `CC(C)N(Cc1ccccc1)C(=O)CCSc1cc(C(C)(C)C)c(O)c(C(C)(C)C)c1` [Example 4, 3-[[3,5-bis(1,1-dimethylethyl)-4-hydroxylphenyl]thio]-N-(1-methylethyl)-N-(phenylmethyl)propanamide], the midpoint of inhibition, the IC50, lay at 560 nM. Against the preceding molecule, the IC50 is about 2.5-fold lower.
